18 molecules from ChEMBL document CHEMBL2203240, “Synthesis of propiophenone derivatives as new class of antidiabetic agents reducing body weight in db/db mice” (Bioorg Med Chem, 2012) can be followed below.

In general, IC50 refers to the point on the concentration scale where inhibition reaches its midpoint. Usually inhibition stands for how much of the control response was suppressed.

Test [1] deals with Rattus norvegicus. Put plainly: Antihyperglycemic activity against sucrose challenged streptozotocin-induced diabetic Sprague-Dawley albino rat assessed as reduction of AUC of plasma glucose level at 100 mg/kg, po after 1 to 5 hrs administered 30 mins before sucrose challenge by glucometer. More on the design: scale not given: the % may be the effect or the level left. It is filed as functional.

The subject of test [2] is Mus musculus. Put plainly: Antidyslipidemic activity in C57BL/Ks db/db mouse assessed as reduction in plasma total cholesterol at 30 mg/kg/day, po relative to control. It is filed as functional. On the set-up: scale not given: the % may be the effect or the level left.
Test [3] deals with Mus musculus. The test can be described thus: Reduction in food intake in C57BL/Ks db/db mouse at 30 mg/kg/day, po measured from day 3 to day 10. Type of test: functional, organism-based.
Test [4] deals with Mus musculus. Put plainly: Antidyslipidemic activity in C57BL/Ks db/db mouse assessed as reduction in plasma triglyceride level at 30 mg/kg/day, po relative to control. It is filed as functional. On the set-up: scale not given: the % may be the effect or the level left.
Test [5] addresses T1, Tyrosine-protein phosphatase non-receptor type 1 (Homo sapiens, UniProt P18031).
T1 sequence (P18031 whole entry): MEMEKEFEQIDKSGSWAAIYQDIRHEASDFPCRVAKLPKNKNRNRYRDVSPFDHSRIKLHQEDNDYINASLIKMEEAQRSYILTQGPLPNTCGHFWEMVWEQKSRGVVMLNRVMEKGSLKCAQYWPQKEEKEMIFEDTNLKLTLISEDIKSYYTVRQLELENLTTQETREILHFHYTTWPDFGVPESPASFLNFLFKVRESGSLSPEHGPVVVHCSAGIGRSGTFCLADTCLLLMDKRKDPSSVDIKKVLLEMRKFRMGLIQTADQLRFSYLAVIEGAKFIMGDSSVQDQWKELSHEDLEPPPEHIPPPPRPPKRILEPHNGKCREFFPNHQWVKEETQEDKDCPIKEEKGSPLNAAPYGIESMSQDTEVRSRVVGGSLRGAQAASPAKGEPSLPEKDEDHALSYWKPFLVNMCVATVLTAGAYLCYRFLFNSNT
Put plainly: Inhibition of PTP1B.

Test [6] addresses T2, Tyrosine-protein phosphatase non-receptor type 1 (Homo sapiens) (UniProt P18031).
T2 sequence (whole entry): T1 sequence (P18031 whole entry)
The test can be described thus: Inhibition of PTP1B at 100 uM.

Test [7] deals with Dipeptidyl peptidase 4 (Homo sapiens) (UniProt P27487). The test can be described thus: Inhibition of DPP4 at 100 uM.
Test [8] has as its system Mus musculus. The test can be described thus: Antiobesity activity in C57BL/Ks db/db mouse assessed as reduction in body weight change at 30 mg/kg/day, po measured for 10 days relative to control. Type of test: functional, organism-based.
Test [9] has as its system Mus musculus. Put plainly: Antihyperglycemic activity in C57BL/Ks db/db mouse assessed as reduction in blood glucose level at 30 mg/kg/day, po measured on day 6 post dose by postprandial oral glucose tolerance test relative to control. Type of test: functional. More on the design: scale not given: the % may be the effect or the level left.
Test [10] in a line: Inhibition of glycogen phosphorylase at 100 uM.
The subject of test [11] is Mus musculus. Put plainly: Antihyperglycemic activity in C57BL/Ks db/db mouse assessed as reduction in blood glucose level at 30 mg/kg/day, po measured day 10 post dose by postprandial oral glucose tolerance test relative to control. It is filed as functional. More on the design: scale not given: the % may be the effect or the level left.
Test [12] deals with Mus musculus. The test can be described thus: Antidyslipidemic activity in C57BL/Ks db/db mouse assessed as increase in HDL-cholesterol at 30 mg/kg/day, po relative to control. It is filed as functional.
In test [13] the test system is Mus musculus. The test can be described thus: Antihyperglycemic activity in C57BL/Ks db/db mouse assessed as reduction in postprandial hyperglycemia at 30 mg/kg, po measured for 10 days post dose relative to control. More on the design: scale not given: the % may be the effect or the level left. Type of test: functional.
The nature of test [14]: Inhibition of alpha-glucosidase at 100 uM.
The test system of test [15] is Mus musculus. Put plainly: Antihyperglycemic activity in C57BL/Ks db/db mouse assessed as reduction in insulin level at 30 mg/kg/day, po relative to control. It is filed as functional. On the set-up: scale not given: the % may be the effect or the level left.
In test [16] the test system is Rattus norvegicus. The test can be described thus: Antihyperglycemic activity against sucrose challenged streptozotocin-induced diabetic Sprague-Dawley albino rat assessed as reduction of AUC of plasma glucose level at 100 mg/kg, po after 1 to 24 hrs administered 30 mins before sucrose challenge by glucometer. It is filed as functional. On the set-up: scale not given: the % may be the effect or the level left.

Test [17] concerns Rattus norvegicus. Put plainly: Antihyperglycemic activity against sucrose loaded Charles Foster/Wistar albino rat assessed as reduction in blood glucose level at 100 mg/kg, po administered 30 mins before sucrose challenge by glucometer. On the set-up: scale not given: the % may be the effect or the level left. It is filed as functional.
The target in test [18] is T3, Glucose-6-phosphatase catalytic subunit 1 (Homo sapiens) (UniProt P35575).
T3 sequence (whole entry): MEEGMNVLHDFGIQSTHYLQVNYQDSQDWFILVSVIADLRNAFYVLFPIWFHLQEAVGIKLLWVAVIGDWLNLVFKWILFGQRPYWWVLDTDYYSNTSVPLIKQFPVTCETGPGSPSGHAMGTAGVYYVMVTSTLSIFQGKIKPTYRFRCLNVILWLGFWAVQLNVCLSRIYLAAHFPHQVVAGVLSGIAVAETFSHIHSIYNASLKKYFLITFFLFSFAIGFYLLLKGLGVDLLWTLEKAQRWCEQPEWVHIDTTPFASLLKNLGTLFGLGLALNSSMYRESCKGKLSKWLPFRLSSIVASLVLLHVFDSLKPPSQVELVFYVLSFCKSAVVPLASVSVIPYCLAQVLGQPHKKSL
The test can be described thus: Inhibition of glucose-6-phosphatase at 100 uM.

Calls of active or inactive are those of the source. The rule behind the calls is not given here.

Chain of Dipeptidyl peptidase 4 (Homo sapiens) (P27487 whole entry, looked up): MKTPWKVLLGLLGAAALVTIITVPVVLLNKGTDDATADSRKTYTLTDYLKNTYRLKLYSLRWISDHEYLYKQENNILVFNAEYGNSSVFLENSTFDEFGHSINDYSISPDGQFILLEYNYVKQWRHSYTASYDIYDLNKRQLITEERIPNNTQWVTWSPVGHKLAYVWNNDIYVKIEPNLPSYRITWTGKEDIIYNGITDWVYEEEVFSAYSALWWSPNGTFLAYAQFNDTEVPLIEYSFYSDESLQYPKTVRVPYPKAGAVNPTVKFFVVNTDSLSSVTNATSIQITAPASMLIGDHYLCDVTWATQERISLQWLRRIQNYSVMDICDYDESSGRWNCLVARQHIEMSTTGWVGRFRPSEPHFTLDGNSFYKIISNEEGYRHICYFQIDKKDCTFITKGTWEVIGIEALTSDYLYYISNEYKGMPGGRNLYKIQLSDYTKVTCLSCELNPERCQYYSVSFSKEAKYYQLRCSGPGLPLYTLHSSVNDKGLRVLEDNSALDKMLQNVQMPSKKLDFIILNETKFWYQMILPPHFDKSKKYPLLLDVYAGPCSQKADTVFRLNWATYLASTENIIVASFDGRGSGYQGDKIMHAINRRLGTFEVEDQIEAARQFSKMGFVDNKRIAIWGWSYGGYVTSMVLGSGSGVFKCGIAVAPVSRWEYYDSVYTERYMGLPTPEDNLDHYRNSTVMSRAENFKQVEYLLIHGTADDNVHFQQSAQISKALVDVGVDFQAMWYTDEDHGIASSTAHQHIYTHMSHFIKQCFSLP

On to `CCC(=O)c1c(O)cccc1OCCCNc1ccc(OC)cc1`, for which the Activity with Rattus norvegicus [1] amounted to 22.1%; in the test on Mus musculus [2] it was 14.8%; with Mus musculus [4] it was 22%; in the test on Mus musculus [9], 28.4%; in the test on Mus musculus [11] it was 29.9%; in the test on Mus musculus [12], 7.2%. In addition, the Activity with Mus musculus [13] amounted to 23.9%; in the test on Mus musculus [15], 23.6%; with Rattus norvegicus [16], 22.8%; in the test on Rattus norvegicus [17], 54.6%. The result with Mus musculus [3] and in the test with Mus musculus [8] was Active. In [5], this molecule displayed a 50% inhibitory concentration (IC50) of 8.3 µM. The inhibition in test [6] is 83.6%; in test [7] it was 13.7%; in [10] it was 23%; in [14], 19.3%; in [18], below 5%.

Turning to `CCC(=O)c1c(O)cccc1OCCCN1CCCC1`, the Activity with Rattus norvegicus [1] is on record as 16.9%; in the test with Rattus norvegicus [16], 14.8%; in the test on Rattus norvegicus [17], 26.8%. Also, the inhibition in test [6] was 42.1%; in test [7], 25.6%; in [10] it was 19.5%; in [14] it was below 5%; in test [18], 13.6%.

On to `CCOC(=O)C(CCCOc1cccc(OCCCNc2ccc(C)cc2)c1C(=O)CC)C(=O)OCC`, for which the inhibition in [6] is 42.6%; in test [7] it was below 5%; in test [10], below 5%; in test [14] it was 11.8%; in test [18] it was below 5%. Besides, the Activity in the test with Rattus norvegicus [17] was determined as 8.49%.

Take `CCCCNCCCOc1cccc(O)c1C(=O)CC`: in [5], the IC50 was found to be 19.2 µM. For the same molecule, the inhibition in test [6] was 52.1%; in [7] it was 17.4%; in test [10] it was 24.8%; in test [14] it was below 5%; in [18], 18.3%. Besides, in the test with Rattus norvegicus [17], the Activity was determined as 11%.

With `CCC(=O)c1c(O)cccc1OCCN1CCCC1`, the inhibition in test [6] was 36.4%; in test [7] it was below 5%; in [10], 13.7%; in test [14], 28.9%; in test [18], below 5%. Moreover, the Activity with Rattus norvegicus [17] was 21.08%.

Turning to `CN(C)C(=N)NC(=N)N` [METFORMIN], in the test on Rattus norvegicus [17], the Activity was 18.9%.

Regarding `CCCCN(C)CCCOc1cccc(O)c1C(=O)CC`, the Activity was determined as 27.5% in the test with Rattus norvegicus [1]; 20.4% with Mus musculus [2]; 23.8% with Mus musculus [4]; 26.7% in the test on Mus musculus [9]; 33.6% with Mus musculus [11]; 4.03% with Mus musculus [12]. Further, the Activity was determined as 39.6% in the test on Mus musculus [13], 27.7% with Mus musculus [15], 21.5% in the test with Rattus norvegicus [16] and 23.8% in the test with Rattus norvegicus [17]. The result in the test with Mus musculus [3] and with Mus musculus [8] was Active. Moreover, the inhibition in test [6] was 31.9%; in test [7], below 5%; in test [10], below 5%; in test [14], below 5%; in test [18], 17.3%.

Consider `COc1ccc(Cl)cc1C(=O)NCCc1ccc(S(=O)(=O)NC(=O)NC2CCCCC2)cc1` [GLYBURIDE], for which, in the test on Rattus norvegicus [17], the Activity is 32.3%.

Turning to `CCOC(=O)C(CCCOc1cccc(OCCN2CCCCC2)c1C(=O)CC)C(=O)OCC`, the inhibition is 19.6% in test [6]; below 5% in [7]; below 5% in [10]; below 5% in test [14]; below 5% in test [18]. Also, the Activity with Rattus norvegicus [17] amounted to 16.4%.

Consider `CN(CCOc1ccc(CC2SC(=O)NC2=O)cc1)c1ccccn1` (centres undefined) [ROSIGLITAZONE], for which the figures for the Activity in the test with Mus musculus [9], in the test on Mus musculus [11] and in the test on Mus musculus [13] were 33.9%, 46.5% and 51.3%, respectively.

As to `CCC(=O)c1c(O)cccc1OCCCNc1ccc(C)cc1`, the Activity is given as 3.02% in the test on Rattus norvegicus [1], 2.02% with Rattus norvegicus [16] and 28.7% in the test on Rattus norvegicus [17]. This molecule also had an IC50 in [5] of 12.5 µM. In addition, the inhibition in [6] is 79.8%; in [7] it was below 5%; in test [10] it was below 5%; in [14], 18.9%; in test [18], 18.9%.

`CCC(=O)c1c(O)cccc1OCCCN1CCCCC1`: the Activity in the test with Rattus norvegicus [1] was 10.2%; in the test with Rattus norvegicus [16] it was 8.6%; in the test on Rattus norvegicus [17], 33.2%. Besides, the inhibition in test [6] was 31.8%; in test [7] it was below 5%; in [10], below 5%; in test [14], below 5%; in test [18] it was below 5%.

As for `CCOC(=O)C(CCCOc1cccc(OCCN2CCCC2)c1C(=O)CC)C(=O)OCC`, it took 18.6 µM to reach half-maximal inhibition in [5] (IC50). Also, the inhibition in test [6] is 58.6%; in test [7], 18.3%; in [10], below 5%; in [14], below 5%; in test [18], 13.9%. Further, the Activity in the test on Rattus norvegicus [17] worked out at 22.9%.

Take `CCOC(=O)C(CCCOc1cccc(OCCN(CC)CC)c1C(=O)CC)C(=O)OCC`: the inhibition in test [6] was 40.4%; in test [7] it was below 5%; in test [10] it was 22.9%; in test [14] it was below 5%; in [18], below 5%. Also, in the test on Rattus norvegicus [17], the Activity came out at 17%.

For the molecule `CCC(=O)c1c(O)cccc1OCCN(C)C`, the Activity in the test with Rattus norvegicus [1] is 12.1%; in the test on Rattus norvegicus [16] it was 7.4%; in the test on Rattus norvegicus [17], 19.45%. Further, the inhibition is 19.3% in test [6]; 24.2% in test [7]; below 5% in test [10]; 18.4% in [14]; 11.3% in test [18].

In the case of `CCC(=O)c1c(O)cccc1OCCN1CCCCC1`, the Activity in the test on Rattus norvegicus [1] is listed as 29.2%; in the test on Rattus norvegicus [16], 19.7%; with Rattus norvegicus [17] it was 40.4%. Also, the inhibition in [6] was 27.5%; in [7] it was below 5%; in [10], below 5%; in [14], below 5%; in [18], 21.3%.

In test [5], `CCOC(=O)C(CCCOc1cccc(OCCN(C)C)c1C(=O)CC)C(=O)OCC` returned an IC50 of 20.4 µM. The inhibition in [6] is 51.1%; in test [7], below 5%; in [10], below 5%; in [14], below 5%; in test [18], below 5%. Moreover, the Activity in the test with Rattus norvegicus [17] stood at 11.5%.

Take `CCC(=O)c1c(O)cccc1OCCN(CC)CC`: the Activity was 23% with Rattus norvegicus [1], 20.4% in the test with Rattus norvegicus [16] and 38.4% with Rattus norvegicus [17]. Further, the inhibition in test [6] was 28.8%; in test [7], below 5%; in test [10], below 5%; in test [14] it was 19.3%; in test [18] it was 11.6%.
